Source: ChEMBL document CHEMBL1909046, “DrugMatrix in vitro pharmacology data”

Legend:
[1] = target: 5-hydroxytryptamine receptor 2B (Homo sapiens, UniProt P41595); type: cell membranes, CHO-K1, Membrane; details: cho-k1; also: in other assays of this panel Not Active means under 50% inhibition at 10 µM
[2] = target: T1, 5-hydroxytryptamine receptor 2C (Homo sapiens, UniProt P28335); experiment: DRUGMATRIX: Serotonin (5-Hydroxytryptamine) 5-HT2C radioligand binding (ligand: [3H] Mesulergine); type: cell membranes, CHO-K1, Membrane; details: cho-k1; Not Active = under 50% inhibition at 10 µM
T1 sequence (P28335 whole entry): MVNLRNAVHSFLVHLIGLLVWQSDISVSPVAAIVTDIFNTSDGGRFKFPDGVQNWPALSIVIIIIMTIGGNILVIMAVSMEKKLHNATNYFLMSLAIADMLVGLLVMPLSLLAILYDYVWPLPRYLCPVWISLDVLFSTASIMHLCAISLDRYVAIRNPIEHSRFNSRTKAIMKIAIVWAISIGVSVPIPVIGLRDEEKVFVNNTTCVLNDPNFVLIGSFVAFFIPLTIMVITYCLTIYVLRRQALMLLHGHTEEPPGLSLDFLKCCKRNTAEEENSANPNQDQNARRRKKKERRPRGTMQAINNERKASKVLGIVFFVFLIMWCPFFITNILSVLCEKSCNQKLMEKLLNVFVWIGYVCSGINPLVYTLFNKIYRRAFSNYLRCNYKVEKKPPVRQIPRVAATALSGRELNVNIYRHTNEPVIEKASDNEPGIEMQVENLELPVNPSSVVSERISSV

Glucocorticoid receptor = target: T2, Glucocorticoid receptor (Homo sapiens, UniProt P04150); details: hela s3; also: in other assays of this panel Not Active means under 50% inhibition at 10 µM
T2 sequence (P04150 whole entry): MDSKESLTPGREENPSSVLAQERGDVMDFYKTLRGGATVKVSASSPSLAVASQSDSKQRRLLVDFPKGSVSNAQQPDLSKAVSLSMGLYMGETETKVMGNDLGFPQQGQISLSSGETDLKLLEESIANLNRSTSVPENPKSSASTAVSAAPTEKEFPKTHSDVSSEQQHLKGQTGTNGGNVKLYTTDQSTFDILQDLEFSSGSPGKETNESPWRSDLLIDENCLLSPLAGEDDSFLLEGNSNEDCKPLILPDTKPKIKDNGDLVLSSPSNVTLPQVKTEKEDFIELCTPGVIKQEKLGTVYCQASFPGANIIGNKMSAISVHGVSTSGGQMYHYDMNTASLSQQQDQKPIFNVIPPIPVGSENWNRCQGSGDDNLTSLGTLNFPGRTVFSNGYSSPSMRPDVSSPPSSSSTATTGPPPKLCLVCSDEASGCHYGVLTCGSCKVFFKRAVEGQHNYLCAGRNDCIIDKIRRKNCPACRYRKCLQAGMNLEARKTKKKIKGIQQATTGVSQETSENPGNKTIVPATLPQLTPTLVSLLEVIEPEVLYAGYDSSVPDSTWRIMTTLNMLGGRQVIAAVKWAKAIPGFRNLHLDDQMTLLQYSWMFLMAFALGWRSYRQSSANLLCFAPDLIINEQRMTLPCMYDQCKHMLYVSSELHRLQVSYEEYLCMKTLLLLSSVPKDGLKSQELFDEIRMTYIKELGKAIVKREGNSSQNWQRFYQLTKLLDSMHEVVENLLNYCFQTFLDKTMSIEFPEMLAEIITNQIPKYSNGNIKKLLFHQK

Cytochrome P450 2A6 = target: T3, Cytochrome P450 2A6 (Homo sapiens, UniProt P11509); details: bti-tn-5b1-4; also: in other assays of this panel Not Active means under 50% inhibition at 10 µM
T3 sequence (P11509 whole entry): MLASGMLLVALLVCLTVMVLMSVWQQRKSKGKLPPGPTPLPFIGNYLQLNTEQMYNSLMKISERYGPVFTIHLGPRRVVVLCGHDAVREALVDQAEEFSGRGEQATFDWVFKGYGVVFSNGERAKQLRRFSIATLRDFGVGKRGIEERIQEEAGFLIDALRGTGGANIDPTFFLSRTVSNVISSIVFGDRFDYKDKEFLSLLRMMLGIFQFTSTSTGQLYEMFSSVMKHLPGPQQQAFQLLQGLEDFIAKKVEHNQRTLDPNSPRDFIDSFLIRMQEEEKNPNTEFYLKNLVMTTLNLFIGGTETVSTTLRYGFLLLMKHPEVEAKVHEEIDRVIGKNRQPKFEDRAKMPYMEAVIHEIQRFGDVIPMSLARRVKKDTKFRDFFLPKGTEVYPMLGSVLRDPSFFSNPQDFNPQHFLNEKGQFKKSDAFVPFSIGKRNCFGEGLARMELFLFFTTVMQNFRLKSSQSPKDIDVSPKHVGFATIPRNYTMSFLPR

Cytochrome P450 2C9 = Cytochrome P450 2C9 (Homo sapiens, UniProt P11712); details: bti-tn-5b1-4; also: in other assays of this panel Not Active means under 50% inhibition at 10 µM
Cytochrome P450 2D6 = Cytochrome P450 2D6 (Homo sapiens, UniProt P10635); details: bti-tn-5b1-4; also: in other assays of this panel Not Active means under 50% inhibition at 10 µM
[3] = target: Sodium-dependent noradrenaline transporter (Homo sapiens, UniProt P23975); experiment: DRUGMATRIX: Norepinephrine Transporter radioligand binding (ligand: [125I] RTI-55); type: cell membranes, MDCK, Membrane; details: mdck; Not Active = under 50% inhibition at 10 µM
Chain of Sodium-dependent noradrenaline transporter (P23975 whole entry): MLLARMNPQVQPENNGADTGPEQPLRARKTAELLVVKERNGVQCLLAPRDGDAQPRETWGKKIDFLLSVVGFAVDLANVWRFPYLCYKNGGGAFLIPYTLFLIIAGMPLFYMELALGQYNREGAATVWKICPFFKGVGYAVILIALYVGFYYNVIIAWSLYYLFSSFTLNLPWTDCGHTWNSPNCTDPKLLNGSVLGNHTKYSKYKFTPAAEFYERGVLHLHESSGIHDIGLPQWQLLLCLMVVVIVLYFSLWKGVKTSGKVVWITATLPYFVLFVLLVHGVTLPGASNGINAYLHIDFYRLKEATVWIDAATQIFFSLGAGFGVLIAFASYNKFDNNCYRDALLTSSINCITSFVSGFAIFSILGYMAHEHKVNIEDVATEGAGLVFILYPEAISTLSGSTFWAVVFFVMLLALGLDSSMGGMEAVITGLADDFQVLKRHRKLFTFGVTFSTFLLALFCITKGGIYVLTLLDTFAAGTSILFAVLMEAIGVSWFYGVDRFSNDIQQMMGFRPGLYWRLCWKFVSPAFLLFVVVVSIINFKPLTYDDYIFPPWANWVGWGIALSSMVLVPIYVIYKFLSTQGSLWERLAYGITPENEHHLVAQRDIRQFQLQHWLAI

Chain of 5-hydroxytryptamine receptor 2B (P41595 whole entry): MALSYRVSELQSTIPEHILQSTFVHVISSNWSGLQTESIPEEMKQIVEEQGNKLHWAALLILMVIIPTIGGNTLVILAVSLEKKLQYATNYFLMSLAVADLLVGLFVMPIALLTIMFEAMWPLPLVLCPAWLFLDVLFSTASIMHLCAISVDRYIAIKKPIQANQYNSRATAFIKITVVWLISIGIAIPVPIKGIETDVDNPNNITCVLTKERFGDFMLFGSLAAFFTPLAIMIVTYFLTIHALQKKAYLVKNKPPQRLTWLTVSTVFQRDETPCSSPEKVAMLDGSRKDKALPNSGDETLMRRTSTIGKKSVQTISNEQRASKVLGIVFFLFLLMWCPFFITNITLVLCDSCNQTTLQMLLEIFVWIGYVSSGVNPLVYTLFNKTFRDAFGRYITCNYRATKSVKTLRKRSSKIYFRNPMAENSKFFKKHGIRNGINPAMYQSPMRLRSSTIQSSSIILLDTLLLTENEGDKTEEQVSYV
Chain of Cytochrome P450 2C9 (P11712 whole entry): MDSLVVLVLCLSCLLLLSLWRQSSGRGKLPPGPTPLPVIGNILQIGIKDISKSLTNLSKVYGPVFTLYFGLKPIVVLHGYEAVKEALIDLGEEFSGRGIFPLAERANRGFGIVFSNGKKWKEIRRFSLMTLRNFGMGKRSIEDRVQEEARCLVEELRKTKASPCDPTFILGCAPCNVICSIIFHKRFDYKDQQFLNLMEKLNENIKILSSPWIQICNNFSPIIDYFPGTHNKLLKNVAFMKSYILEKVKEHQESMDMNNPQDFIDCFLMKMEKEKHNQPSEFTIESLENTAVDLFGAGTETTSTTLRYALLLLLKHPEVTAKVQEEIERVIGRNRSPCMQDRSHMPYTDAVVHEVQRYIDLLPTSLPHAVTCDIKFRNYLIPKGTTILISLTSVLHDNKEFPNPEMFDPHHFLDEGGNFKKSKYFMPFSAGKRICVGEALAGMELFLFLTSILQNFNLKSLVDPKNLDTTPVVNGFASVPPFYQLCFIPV
Chain of Cytochrome P450 2D6 (P10635 whole entry): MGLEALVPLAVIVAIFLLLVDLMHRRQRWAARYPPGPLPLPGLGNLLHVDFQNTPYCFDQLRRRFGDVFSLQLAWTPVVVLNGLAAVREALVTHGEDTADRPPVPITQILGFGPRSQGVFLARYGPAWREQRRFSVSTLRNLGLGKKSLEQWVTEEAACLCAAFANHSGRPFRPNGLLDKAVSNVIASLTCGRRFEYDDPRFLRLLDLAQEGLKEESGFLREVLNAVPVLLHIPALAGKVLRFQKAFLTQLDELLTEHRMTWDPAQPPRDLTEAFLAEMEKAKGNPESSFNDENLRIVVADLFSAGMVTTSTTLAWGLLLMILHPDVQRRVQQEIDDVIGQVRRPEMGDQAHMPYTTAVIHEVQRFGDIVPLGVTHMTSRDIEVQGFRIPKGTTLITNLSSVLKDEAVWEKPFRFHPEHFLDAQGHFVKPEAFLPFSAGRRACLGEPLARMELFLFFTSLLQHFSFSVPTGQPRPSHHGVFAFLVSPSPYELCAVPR

CCC(C)(C)C(=O)O[C@H]1C[C@@H](C)C=C2C=C[C@H](C)[C@H](CC[C@@H]3C[C@@H](O)CC(=O)O3)[C@H]21 [SIMVASTATIN]
Not Active: IC50 [1] | IC50 [2] | IC50 (Glucocorticoid receptor)

CN(C)CCC=C1c2ccccc2COc2ccccc21 [DOXEPIN]
Not Active: IC50 (Cytochrome P450 2A6) | Ki (Cytochrome P450 2A6) | IC50 (Cytochrome P450 2C9) | Ki (Cytochrome P450 2C9) | IC50 (Cytochrome P450 2D6) | Ki (Cytochrome P450 2D6) | IC50 (Glucocorticoid receptor)

C#C[C@]1(O)CC[C@H]2[C@@H]3[C@H](C)CC4=C(CCC(=O)C4)[C@H]3CC[C@@]21C [TIBOLONE]
Not Active: IC50 [3] | IC50 [1] | IC50 [2] | IC50 (Cytochrome P450 2A6) | Ki (Cytochrome P450 2A6) | IC50 (Cytochrome P450 2C9) | Ki (Cytochrome P450 2C9) | IC50 (Cytochrome P450 2D6) | Ki (Cytochrome P450 2D6)

Cc1nnc(NS(=O)(=O)c2ccc(N)cc2)s1 [SULFAMETHIZOLE]
Not Active: IC50 [3] | IC50 [1] | IC50 [2] | IC50 (Cytochrome P450 2A6) | Ki (Cytochrome P450 2A6) | IC50 (Cytochrome P450 2C9) | Ki (Cytochrome P450 2C9) | IC50 (Cytochrome P450 2D6) | Ki (Cytochrome P450 2D6)

Cc1[nH]c(=O)c(C#N)cc1-c1ccncc1 [MILRINONE]
Not Active: IC50 [3] | IC50 [1] | IC50 [2] | IC50 (Cytochrome P450 2A6) | Ki (Cytochrome P450 2A6) | IC50 (Cytochrome P450 2C9) | Ki (Cytochrome P450 2C9) | IC50 (Cytochrome P450 2D6) | Ki (Cytochrome P450 2D6)

CC(Cl)(Cl)Cl [TRICHLOROETHANE]
Not Active: IC50 [3] | IC50 [1] | IC50 [2] | IC50 (Cytochrome P450 2A6) | Ki (Cytochrome P450 2A6) | IC50 (Cytochrome P450 2C9) | Ki (Cytochrome P450 2C9) | IC50 (Cytochrome P450 2D6) | Ki (Cytochrome P450 2D6)

CC(=O)O[C@]1(C(C)=O)CC[C@H]2[C@@H]3C[C@H](C)C4=CC(=O)CC[C@]4(C)[C@H]3CC[C@@]21C [MEDROXYPROGESTERONE ACETATE]
Not Active: IC50 [3] | IC50 [1] | IC50 [2] | IC50 (Cytochrome P450 2A6) | Ki (Cytochrome P450 2A6) | IC50 (Cytochrome P450 2C9) | Ki (Cytochrome P450 2C9) | IC50 (Cytochrome P450 2D6) | Ki (Cytochrome P450 2D6)

CC#C[C@]1(O)CC[C@H]2[C@@H]3CCC4=CC(=O)CCC4=C3[C@@H](c3ccc(N(C)C)cc3)C[C@@]21C [MIFEPRISTONE]
Not Active: IC50 [3] | IC50 [1] | IC50 [2] | IC50 (Cytochrome P450 2A6) | Ki (Cytochrome P450 2A6) | IC50 (Cytochrome P450 2C9) | Ki (Cytochrome P450 2C9) | IC50 (Cytochrome P450 2D6) | Ki (Cytochrome P450 2D6)

CNCCCC12CCC(c3ccccc31)c1ccccc12 [MAPROTILINE]
Not Active: IC50 (Glucocorticoid receptor)

O=C(c1ccccc1)c1ccc2n1CCC2C(=O)O (configuration not stated) [KETOROLAC]
Not Active: IC50 [3] | IC50 [1] | IC50 [2] | IC50 (Cytochrome P450 2A6) | Ki (Cytochrome P450 2A6) | IC50 (Cytochrome P450 2C9) | Ki (Cytochrome P450 2C9) | IC50 (Cytochrome P450 2D6) | Ki (Cytochrome P450 2D6)

C1CCN2C[C@@H]3C[C@@H](CN4CCCC[C@@H]34)[C@H]2C1 [SPARTEINE]
Not Active: IC50 [3] | IC50 [1] | IC50 [2] | IC50 (Glucocorticoid receptor)

CC(O)C(=O)O (configuration not stated) [LACTIC ACID]
Not Active: IC50 [3] | IC50 [1] | IC50 [2] | IC50 (Cytochrome P450 2A6) | Ki (Cytochrome P450 2A6) | IC50 (Cytochrome P450 2C9) | Ki (Cytochrome P450 2C9) | IC50 (Cytochrome P450 2D6) | Ki (Cytochrome P450 2D6)
